# Results: patent US10918610B2, “Compounds and methods of promoting myelination” (Case Western Reserve University, priority 2017, dated 2021)
# Assays:
# [1] = tested on: newly myelinated fibers within the spinal cord; experiment: LPC-induced focal demyelination in the dorsal column of the spinal cord; assay type: in vivo, C57BL/6 female mice; conditions: 25 mg/kg intraperitoneally daily, days 4 to 13 post laminectomy, versus vehicle
# Procedure: Focal demyelination in the dorsal column of the spinal cord was induced by the injection of 1% LPC solution. 12 week old C57BL/6 female mice were anesthetized using isoflurane and T10 laminectomies were performed. 1 μl of 1% LPC was infused into the dorsal column at a rate of 15 al/hour. At day 4, animals were randomized into treatment groups prior to treatment (2 animals were excluded due to surgical complications). […] Drugs were dissolved in DMSO and ethanol or corn oil and then diluted with sterile saline for injections. This experiment was done in a blinded manner: compounds were coded to ensure the researchers performing the experiments were unaware of the treatment being administered to each animal. […] Mice were anesthetized using ketamine/xylazine rodent cocktail and then euthanized by transcardial perfusion with 4% PFA, 2% glutaraldehyde, and 0.1 M sodium cacodylate. […] The number of myelinated axons per unit areas was counted from sections in the middle of each lesion and then averaged over each treatment group. […]
# Focal demyelination in the dorsal column of the spinal cord was induced by the injection of 1% LPC solution. […] The number of myelinated axons per unit area was counted from sections obtained from the middle of each lesion and then averaged over each treatment group. All sections within the lesion area were scored. […]
# EBP = experiment: Analysis of mouse brain sterol levels in vivo; set-up: species or system C57-BL6 mice; conditions: mice, 10 mg/kg once daily for 3 days, versus vehicle
# Procedure: Ten to twelve week old male C57BL/6 mice were injected with Cis-N-cyclohexyl-N-ethyl-3-(3-chloro-4-cyclohexylphenyl)prop-2-enylamine dissolved in sterile saline daily for three days. Mice were anaesthetized with isoflurane and perfused with phosphate buffered saline to remove blood from the brain. Brains were collected and flash frozen using liquid nitrogen. The samples were pulverized and 50-100 milligrams of tissue were collected for further processing. A modified Folch protocol was used for extraction of sterols. Briefly, samples were resuspended in a 2:1 chloroform/methanol mixture and homogenized. Cell debris was removed by centrifugation at 4000 g for 10 min. The solution was dried under air and resuspended in hexane with a cholesterol-D7 standard and dried again. Lipids were derivatized with 70 al of bis(trimethylsilyl)trifluoroacetamide; 2 μls were injected and analyzed by GC/MS as described above.
# Cis-N-cyclohexyl-N-ethyl-3-(3-chloro-4-cyclohexylphenyl)prop-2-enylamine was dissolved in a vehicle solution containing 80/10/10 saline/DMSO/Kolliphor. C57-BL6 mice were injected at 10 mg/kg once daily for 3 days with either vehicle (DMSO) or Cis-N-cyclohexyl-N-ethyl-3-(3-chloro-4-cyclohexylphenyl)prop-2-enylamine (n=5). (5 mice/condition). After 3 days, mice were anesthetized with isoflurane and perfused with phosphate buffered saline to remove blood from the brain. […] Lipids were derivatized with 70 ul of bis(trimethylsilyl) trifluoroacetamide; Samples were analyzed in […] using electron impact ionization; ion fragment abundances were integrated. 2 ul was analyzed by gas chromatography/mass spectrometry using an Agilent 5973 Network Mass Selective Detector equipped with a 6890 gas chromatograph system and a HP-5MS capillary column ([…]). Samples were analyzed in full scan mode using electron impact ionization; ion fragment peaks were integrated to calculate sterol abundance, and quantitation was relative to cholesterol-d7. The following ion fragments were used to quantitate each metabolite: zymostenol (458), zymosterol (456), Desmosterol. […]
compound,measurement,setting,value
CCN(C/C=C\c1ccc(C2CCCCC2)c(Cl)c1)C1CCCCC1 [Cis-N-cyclohexyl-N-ethyl-3-(3-chloro-4-cyclohexylphenyl)prop-2-enylamine],"myelin formation in the demyelinated lesion, electron microscopy (FIG. 7C)",[1],new myelin formation
same,number of toluidine Blue-stained newly myelinated fibers within the spinal cord (FIG. 7F),[1],significantly increased
same,brain levels of desmosterol,EBP,decreased
same,brain levels of zymostenol,EBP,increased
same,brain levels of zymosterol,EBP,increased
